4 molecules from patent publication US11965180B2, “Cancer stem cell population and method for production thereof” (CHUGAI SEIYAKU KABUSHIKI KAISHA, priority 2010, dated 2024) can be followed below.

Common to all, as to assay type: cell-based, human
Assay [1] concerns Lgr5-negative colon cancer stem cells. In words: Cell growth, Cell Counting Kit-8, floating cancer stem cells. Conditions: 3-day culture; for growth and survival of Lgr5-negative colon cancer stem cells: 10 μg/ml. How it is done: (§1) To determine whether or not the Wnt signaling promotes the growth of colon cancer stem cells, the inventors examined the effects of FH535 (β-catenin/TCF inhibitor) and cardamonin (Wnt/β-catenin inhibitor that induces β-catenin degradation) on the growth of colon cancer stem cells. Cell growth was evaluated as described below. Floating and adherent cancer stem cells were seeded at about 100 and 1×10^4 cells per well, respectively, in 96-well plates. On days 0 and 3, living cells were counted using the Cell Counting Kit-8 assay (Doujindo) according to the manufacturer's protocol. The average absorbance on day 0 was expressed as 100%. For chemical sensitivity analysis, floating and adherent cancer stem cells were seeded at about 100 and 1×10^4 cells per well in 96-well plates, respectively. […] After 3-day culture in the presence of a drug, Cell Counting Kit-8 was added to the cells. The average absorbance of cells exposed to DMSO or the medium alone was expressed as 100%. All the experiments were conducted in triplicate.

Assay [2] concerns Lgr5-positive colon cancer stem cells. In words: Cell growth, Cell Counting Kit-8, adherent cancer stem cells. Conditions: 3-day culture; for growth of Lgr5-positive colon cancer stem cells: PLR123 and PLR59 cells. How it is done:
as §1

For assay [3] the test system is unchanged. As to the kind of experiment: Lgr5 expression in adherent cancer stem cells after chemotherapeutic agent treatment (flow cytometry). Conditions: after 3 days of exposing Lgr5-positive colon cancer stem cells to 10 μg/ml. A general note: In flow cytometry, cells or beads pass a laser one at a time.
Description: Gray indicates fluorescence intensity or ALDH activity after staining cells with the antibodies described. White indicates fluorescence intensity or ALDH activity of an ALDH inhibitor after staining cells with a control isotype antibody.
CSC was incubated with a labeled antibody and analyzed using EPICS ALTRA (Beckman Coulter) and FACSCalibur (Becton Dickinson). The antibodies used were PE-labeled mouse anti-human CD133 (Miltenyi Biotec), PE-labeled mouse anti-human CD44 (BD Pharmingen), FITC-labeled mouse anti-human CD326 (EpCAM) (Miltenyi Biotec), PE-labeled mouse anti-human CD166 (R & D Systems), PE-labeled mouse anti-human CD24 (BD Pharmingen), PE-labeled mouse anti-human CD26 (BD Pharmingen), and PE-labeled mouse anti-human CD29 (BD Pharmingen) antibodies.
Subsequently, the CSC was incubated with a mouse anti-human Lgr5 antibody (2T15E-2) and then a PR-labeled rat anti-mouse IgG (Invitrogen) antibody for Lgr5 staining. Aldehyde dehydrogenase activity was measured using the AldeFluor Kit (Stemcell Technologies). Mouse cells and human CSC were distinguished by staining with an anti-mouse MHC class I antibody (Abcam) and a PE- or APC-labeled goat anti-human IgG2a (BioLegend) antibody. Dead cells were removed with the 7-AAD Viability Dye (Beckman Coulter).

Consider `O=c1[nH]cc(F)c(=O)[nH]1` [5-FU], for which the “growth and survival of Lgr5-negative colon cancer stem cells” value in assay [1] (PLR123 and PLR59 cells) is “had no effect on the growth and survival”. In assay [2] (10 μg/ml), the “growth of Lgr5-positive colon cancer stem cells” value is “significantly inhibited the growth”. In assay [3], the “Lgr5 status of drug-resistant cells” value was “negative for Lgr5”.

Consider `Cc1cc([N+](=O)[O-])ccc1NS(=O)(=O)c1cc(Cl)ccc1Cl` [FH535], for which the “growth of Lgr5-negative colon cancer stem cells” value in assay [1] (50 μM, PLR123 and PLR59 cells) is on record as “had no effect on the growth”. In assay [2] (50 μM), the “growth of Lgr5-positive colon cancer stem cells” value is recorded as “significantly reduced the growth”.

On to `COc1cc(O)cc(O)c1C(=O)/C=C/c1ccccc1` [cardamonin], for which the “number of living cells” value is “about 50%” in assay [1] (50 μM, relative to DMSO alone, Lgr5-negative colon cancer stem cells) and 70% in assay [2] (50 μM, relative to DMSO alone, Lgr5-positive colon cancer stem cells).

Regarding `CCc1c2c(nc3ccc(OC(=O)N4CCC(N5CCCCC5)CC4)cc13)-c1cc3c(c(=O)n1C2)COC(=O)[C@]3(O)CC` [irinotecan], in assay [1] (PLR123 and PLR59 cells), the “growth and survival of Lgr5-negative colon cancer stem cells” value is “had no effect on the growth and survival”. Also, the “growth of Lgr5-positive colon cancer stem cells” value in assay [2] (10 μg/ml) was “significantly inhibited the growth”.
